Experimental data taken from PubChem BioAssay AID1996.
≈ marks a conversion by molar mass, not a printed value. Where “and” joins values, the source holds several entries; their conditions need not be identical. Equal values may be shown once.

Conditions: buffer; pH 7.4; 200.0 µM

Q: For `CN(C)CCOC(=O)NC12CC3CC(CC(C3)C1)C2.Cl`, which solubility kinetic is on record?
A: Its solubility kinetic is over 45.4 µg/mL.

Q: With `COc1ccccc1C(=O)NNC(=O)C(=O)NC(C)C` as the molecule, how does the solubility kinetic read?
A: The solubility kinetic was over 41.9 µg/mL.

Q: Which solubility kinetic does the source give for `COc1cccc(NC(=O)C2CCCN(S(C)(=O)=O)C2)c1` (centres undefined) here?
A: The solubility kinetic was over 46.9 µg/mL.

Q: With `O=C(NC1(Cc2ccc(O)cc2)CCCCC1)c1ccccc1` as the molecule, how does the solubility kinetic read?
A: The solubility kinetic was 44.9 µg/mL (≈ 145 µM).

Q: Which solubility kinetic does the source give for `Cc1onc(-c2ccc(Cl)cc2Cl)c1C(=O)/C=C/N(C)C` here?
A: Its solubility kinetic is over 48.8 µg/mL.

Q: For `COc1cccc(NS(=O)(=O)c2ccc3c(c2)CCN3C(C)=O)c1`, which solubility kinetic is on record?
A: Its solubility kinetic is 3.3 µg/mL (≈ 9.53 µM).

Q: With `COc1ccc(-c2cc(C#N)nc(Cl)n2)cc1` as the molecule, how does the solubility kinetic read?
A: The solubility kinetic was 1.3 µg/mL (≈ 5.29 µM).

Q: For `CC(C)CNC(=O)COCc1cc(-c2ccc3c(c2)OCO3)on1`, which solubility kinetic is on record?
A: The solubility kinetic was over 49.9 µg/mL.

Q: For `CC(OC(=O)CCOc1ccccc1)C(=O)NC1CC1` (centres undefined), which solubility kinetic is on record?
A: The solubility kinetic was over 41.6 µg/mL.

Q: Which solubility kinetic does the source give for `CCN(CC)C(=O)CSC(Nc1cccc(F)c1)=C(C#N)C#N` here?
A: The solubility kinetic was over 49.9 µg/mL.

Q: For `COC(=O)c1ccc(OC(=O)c2cccnc2SC)cc1`, which solubility kinetic is on record?
A: Its solubility kinetic is under 0.6 µg/mL.

Q: Which solubility kinetic does the source give for `O=[N+]([O-])c1cc2c(cc1C=Nc1ccccc1)OCO2` here?
A: The solubility kinetic was 38.1 µg/mL (≈ 141 µM).

Q: Which solubility kinetic does the source give for `CCOC(=O)c1ccc(NC(=O)C2COc3ccccc3O2)cc1` (centres undefined) here?
A: Its solubility kinetic is 2.1 µg/mL (≈ 6.42 µM).

Q: With `Cc1ccc(NC(=O)Cc2c[nH]c3ccccc23)cc1` as the molecule, how does the solubility kinetic read?
A: The solubility kinetic was 3.2 µg/mL (≈ 12.1 µM).

Q: With `NC(=O)COC(=O)c1ccccc1OCc1ccccc1` as the molecule, how does the solubility kinetic read?
A: Its solubility kinetic is over 42.8 µg/mL.

Q: For `CCOc1ccc(N=Cc2c(O)n(Cc3ccccc3)c(=S)[nH]c2=O)cc1`, which solubility kinetic is on record?
A: The solubility kinetic was 0.5 µg/mL (≈ 1.31 µM).

Q: With `COc1ccc(/C=C2\N=C(SC)N(c3ccccc3OC)C2=O)cc1` as the molecule, how does the solubility kinetic read?
A: The solubility kinetic was 1.4 µg/mL (≈ 3.95 µM).

Q: For `COc1ccc(-c2noc(-c3ccc(Br)o3)n2)cc1`, which solubility kinetic is on record?
A: Its solubility kinetic is under 0.3 µg/mL.

Q: Which solubility kinetic does the source give for `CCc1nc2sccc2c(=O)[nH]1` here?
A: The solubility kinetic was over 27 µg/mL.

Q: With `Cc1ccc(OC(=O)c2ccc(Cl)c([N+](=O)[O-])c2)cn1` as the molecule, how does the solubility kinetic read?
A: The solubility kinetic was 42.8 µg/mL (≈ 146 µM).

Q: With `O=C(Nc1ccc(F)c(F)c1)c1ccco1` as the molecule, how does the solubility kinetic read?
A: The solubility kinetic was over 33.5 µg/mL.

Q: For `Cc1cc(/C=C(/C#N)C(=O)O)c(C)n1-c1cccc2ccccc12`, which solubility kinetic is on record?
A: Its solubility kinetic is over 47.5 µg/mL.

Q: With `COc1ccccc1/C=C(\C#N)C(=O)c1cccn1C` as the molecule, how does the solubility kinetic read?
A: The solubility kinetic was 9.7 µg/mL (≈ 36.4 µM).

Q: With `Cc1cc(C)c(S(=O)(=O)c2ccc(F)cc2C)c(=O)[nH]1` as the molecule, how does the solubility kinetic read?
A: The solubility kinetic was over 44.3 µg/mL.

Q: With `O=c1c2ccccc2[se]n1-c1ccccc1` as the molecule, how does the solubility kinetic read?
A: Its solubility kinetic is 13.6 µg/mL and 6.6 µg/mL.

Q: With `CCCC1(c2ccccc2)NC(=O)N(C/C=C/Cl)C1=O` (centres undefined) as the molecule, how does the solubility kinetic read?
A: Its solubility kinetic is over 43.9 µg/mL.

Q: Which solubility kinetic does the source give for `O=C(Nc1nc2ccccc2s1)c1ccccc1` here?
A: Its solubility kinetic is 3.1 µg/mL (≈ 12.2 µM).

Q: With `CC(=O)Nc1ccc(N2CCN(c3ccc(C(F)(F)F)cn3)CC2)nc1` as the molecule, how does the solubility kinetic read?
A: Its solubility kinetic is 0.8 µg/mL (≈ 2.19 µM).

Q: For `Cc1sc2ncnc(NCCCN3CCCC3=O)c2c1C`, which solubility kinetic is on record?
A: Its solubility kinetic is over 45.7 µg/mL.

Q: With `O=[N+]([O-])c1ccc(CN2CCN(c3ccccc3Cl)CC2)o1` as the molecule, how does the solubility kinetic read?
A: Its solubility kinetic is 31.8 µg/mL (≈ 98.8 µM).

Q: For `COc1ccc2nc(C)cc(N3CCC(C(N)=O)CC3)c2c1`, which solubility kinetic is on record?
A: The solubility kinetic was 42.3 µg/mL (≈ 141 µM).

Q: Which solubility kinetic does the source give for `CCOC(=O)CCNC(=O)N1CCCC(CNS(=O)(=O)c2cccs2)C1` (centres undefined) here?
A: Its solubility kinetic is over 60.5 µg/mL.

Q: For `Cc1ccc2c(=O)cc(C(=O)NCc3ccccc3)oc2c1C`, which solubility kinetic is on record?
A: Its solubility kinetic is under 0.7 µg/mL.

Q: With `C=CCn1c2[n+](c3ccccc3c1=O)CCCCC2.[I-]` as the molecule, how does the solubility kinetic read?
A: The solubility kinetic was 41.6 µg/mL.

Q: For `Cc1cccc(C2NC(c3cccc(C)c3)C(C)C(=O)C2C)c1` (centres undefined), which solubility kinetic is on record?
A: Its solubility kinetic is 0.8 µg/mL (≈ 2.6 µM).

Q: For `Cl.N=C(c1cccc([N+](=O)[O-])c1)N1CCCCCC1`, which solubility kinetic is on record?
A: Its solubility kinetic is over 42.6 µg/mL.

Q: Which solubility kinetic does the source give for `CC1CCc2c(C(=O)Nc3ccccn3)csc2C1` (centres undefined) here?
A: Its solubility kinetic is 11.6 µg/mL (≈ 42.6 µM).

Q: Which solubility kinetic does the source give for `O=C(CSc1ccccc1)NC1CCCCCCC1` here?
A: Its solubility kinetic is 40.6 µg/mL (≈ 146 µM).

Q: With `C=CCN1C(=O)C(Cc2ccccc2Cl)SC1=Nc1ccc(C(=O)O)cc1` (centres undefined) as the molecule, how does the solubility kinetic read?
A: Its solubility kinetic is over 60.1 µg/mL.

Q: For `N/C(=N\O)c1ccncc1`, which solubility kinetic is on record?
A: Its solubility kinetic is over 20.6 µg/mL.

Q: With `O=C(CN1C(=O)COc2ccccc21)Nc1ccccc1F` as the molecule, how does the solubility kinetic read?
A: The solubility kinetic was 21.4 µg/mL (≈ 71.3 µM).

Q: Which solubility kinetic does the source give for `C=CCNC(=O)c1ccccc1SCc1c(C)noc1C` here?
A: Its solubility kinetic is over 45.4 µg/mL.

Q: With `CCN1c2ccccc2N(C)C1(C)c1ccccc1` (centres undefined) as the molecule, how does the solubility kinetic read?
A: The solubility kinetic was 21.5 µg/mL (≈ 85.2 µM).

Q: For `CC(CN)(NS(=O)(=O)c1ccccc1)c1ccccc1` (centres undefined), which solubility kinetic is on record?
A: The solubility kinetic was over 43.6 µg/mL.

Q: With `NS(=O)(=O)c1ccc(NC(=S)NC(=O)C2CCCCC2)cc1` as the molecule, how does the solubility kinetic read?
A: Its solubility kinetic is over 51.2 µg/mL.

Q: With `CC(C)(C)Nc1nc(Cl)nc(NCc2ccccc2)n1` as the molecule, how does the solubility kinetic read?
A: The solubility kinetic was 8 µg/mL (≈ 27.4 µM).

Q: Which solubility kinetic does the source give for `Cc1ccccc1OCc1ccc(C(=O)N2CCOCC2)o1` here?
A: Its solubility kinetic is 41.2 µg/mL (≈ 137 µM).

Q: With `CC(=O)c1sccc1NC(=O)c1ccccc1C(=O)O` as the molecule, how does the solubility kinetic read?
A: Its solubility kinetic is over 43.4 µg/mL.

Q: For `CN(Cc1cccc(Cl)c1)C(=O)C1CSC2(C)CCC(=O)N12` (centres undefined), which solubility kinetic is on record?
A: The solubility kinetic was over 50.8 µg/mL.
